Experimental findings from patent US8252723B2, “Substituted 1-(3-pyridinyl)pyrazol-4-ylacetic acids, processes for their preparation and their use as herbicides and plant growth regulators” (Bayer CropScience AG, priority 2006, dated 2012) are described below.

The assay concerns summer wheat of the cultivar 'Triso'. Nature of the assay: Plant growth regulation test: culm stabilization of crop plants. Format: in vivo. Conditions: application rate of 30 to 300 g of active substance per hectare, treated at stage BBCH 31, culm length measured after ears had formed. As to the method: With stirring, the compound of the formula (I) in question was, in the form of a water-dispersible powder, together with a surfactant (customary adjuvant at an application rate of 1 l/ha), mixed with water such that a homogenous spray liquor was formed, and applied at an application rate of 300 l of water/ha (converted).
Seeds of summer wheat of the cultivar ‘Triso’ were sown at a depth of 1 cm in plant pots and cultivated outdoors until treatment.
The plants were treated on a laboratory track sprayer with spray liquors of the test substances at macrostage 3 after having reached about 10% of the maximum longitudinal growth typical for the cultivar (stage BBCH 31) and, after the treatment, returned outdoors.
After the ears had formed, the length of the culms were measured. The culm stabilization was evaluated as a percentage of the untreated control.

With `COC(=O)Cc1c(C)nn(-c2ccc(OC)nc2)c1-c1ccccc1` [Example 2-5], the “longitudinal growth (culm length) of summer wheat” value (from here on “longitudinal growth (culm length)”) was “effectively shortened”.

Turning to `Cc1nn(-c2cccnc2)c(-c2ccc(Cl)c(Cl)c2)c1CC(=O)O` [Example 1-27], the “longitudinal growth (culm length)” value is reported as “effectively shortened”.

Consider `O=C(O)Cc1c(C2CC2)nn(-c2cccnc2)c1-c1ccc(Cl)cc1` [Example 1-146], for which the “longitudinal growth (culm length)” value is on record as “effectively shortened”.

For the compound `Cc1nn(-c2cccnc2)c(-c2ccccc2)c1CC(=O)OCC1CC1(Cl)Cl` (stereo not shown) [Example 3-113], the “longitudinal growth (culm length)” value was “effectively shortened”.

In the case of `Cc1nn(-c2cnccc2Cl)c(-c2ccccc2)c1CC(=O)O` [Example 1-30], the “longitudinal growth (culm length)” value is given as “effectively shortened”.

As to `COC(=O)Cc1c(C)nn(-c2cccnc2)c1-c1ccco1` [Example 2-4], the “longitudinal growth (culm length)” value was “effectively shortened”.

Turning to `COC(=O)Cc1cnn(-c2cnccc2C)c1-c1ccccc1` [Example 2-73], the “longitudinal growth (culm length)” value is “effectively shortened”.

As for `COC(=O)Cc1c(C(F)F)nn(-c2cccnc2)c1-c1ccccc1` [Example 2-79], the “longitudinal growth (culm length)” value is given as “effectively shortened”.

As for `Cc1nn(-c2cccnc2)c(-c2ccc(Cl)cc2)c1CC(=O)OCC1CC1` [Example 3-78], the “longitudinal growth (culm length)” value was “effectively shortened”.

On to `Cc1nn(-c2ccc(Cl)nc2Cl)c(-c2ccccc2)c1CC(=O)O` [Example 1-12], for which the “longitudinal growth (culm length)” value is reported as “effectively shortened”.

As to `Cc1ccncc1-n1nc(C)c(CC(=O)O)c1-c1ccc(Cl)c(C(F)(F)F)c1` [Example 1-48], the “longitudinal growth (culm length)” value is “effectively shortened”.

As for `Cc1nn(-c2cccnc2)c(-c2ccc(Cl)s2)c1CC(=O)O` [Example 1-60], the “longitudinal growth (culm length)” value is reported as “effectively shortened”.

For `COC(=O)Cc1c(C)nn(-c2cccnc2)c1-c1cccs1` [Example 2-57], the “longitudinal growth (culm length)” value is listed as “effectively shortened”.

With `COC(=O)Cc1c(C)nn(-c2cccnc2)c1-c1ccsc1` [Example 2-63], the “longitudinal growth (culm length)” value is recorded as “effectively shortened”.

As to `COC(=O)Cc1c(C)nn(-c2cccnc2)c1-c1ccc(O)nc1` [Example 2-70], the “longitudinal growth (culm length)” value is “effectively shortened”.

Consider `Cc1nn(-c2cccnc2)c(-c2ccccc2)c1CC(=O)OCC1CC1` [Example 3-77], for which the “longitudinal growth (culm length)” value was “effectively shortened”.

As to `Cc1ccncc1-n1ncc(CC(=O)O)c1-c1ccccc1` [Example 1-73], the “longitudinal growth (culm length)” value is given as “effectively shortened”.

Turning to `Cc1ccncc1-n1nc(C)c(CC(=O)O)c1-c1ccc(-c2ccccc2)cc1` [Example 1-41], the “longitudinal growth (culm length)” value is recorded as “effectively shortened”.

In the case of `COC(=O)Cc1c(C)nn(-c2cccnc2)c1-c1ccc(Cl)cc1Cl` [Example 2-114], the “longitudinal growth (culm length)” value was “effectively shortened”.

As to `O=C(Cc1cnn(-c2cccnc2)c1-c1ccccc1)OCC1CC1` [Example 3-100], the “longitudinal growth (culm length)” value is reported as “effectively shortened”.

In the case of `Cc1ccncc1-n1nc(C)c(CC(=O)OCC2CC2)c1-c1ccc(Cl)cc1` [Example 3-98], the “longitudinal growth (culm length)” value is on record as “effectively shortened”.

As for `C=C(Cl)COC(=O)Cc1c(C)nn(-c2cccnc2)c1-c1ccc(OC)nc1` [Example 3-193], the “longitudinal growth (culm length)” value is reported as “effectively shortened”.

For the compound `Cc1nn(-c2cccnc2)c(-c2ccccc2)c1CC(=O)OCC1CCCC1` [Example 3-172], the “longitudinal growth (culm length)” value is on record as “effectively shortened”.

Take `COC(=O)Cc1c(C)nn(-c2cccnc2)c1-c1ccccc1Cl` [Example 2-31]: the “longitudinal growth (culm length)” value is reported as “effectively shortened”.

With `COC(=O)Cc1c(C)nn(-c2cccnc2)c1-c1cccc(C)c1` [Example 2-119], the “longitudinal growth (culm length)” value is “effectively shortened”.
